Measured values: ChEMBL document CHEMBL5042530, “Discovery of Novel Pyridine-Dimethyl-Phenyl-DAPY Hybrids by Molecular Fusing of Methyl-Pyrimidine-DAPYs and Difluoro-Pyridinyl-DAPYs: Improving the Druggability toward High Inhibitory Activity, Solubility, Safety, and PK” (J Med Chem, 2022)
pEC50, pIC50: −log10 of the molar value.

Key:
[1] = test system: Human immunodeficiency virus 1; experiment: Antiviral activity against HIV-1 harboring Y181C mutant infected in human MT4 cells assessed as protection against virus-induced cytotoxicity incubated for 5 days by MTT assay; assay type: functional, organism-based; details: Human immunodeficiency virus 1, MT4, 120 h
[2] = Cytotoxicity against human MT4 cells assessed as reduction in cell viability measured after 5 days by MTT assay; assay type: toxicity, cell-based; details: time 5 day
[3] = test system: Human immunodeficiency virus 1; experiment: Antiviral activity against wild type HIV-1 IIIB infected in human MT4 cells assessed as protection against virus-induced cytotoxicity incubated for 5 days by MTT assay; assay type: functional, organism-based; details: Human immunodeficiency virus 1, IIIB, MT4, 120 h
[4] = test system: Human immunodeficiency virus 1; experiment: Antiviral activity against HIV-1 harboring Y188L mutant infected in human MT4 cells assessed as protection against virus-induced cytotoxicity incubated for 5 days by MTT assay; assay type: functional, organism-based; details: Human immunodeficiency virus 1, MT4, 120 h
[5] = target: Human immunodeficiency virus type 1 reverse transcriptase (Human immunodeficiency virus 1, UniProt Q72547); experiment: Inhibition of recombinant wild type p66/p51 HIV1 reverse transcriptase incubated for 40 mins by picogreen dye-based spectrofluorometric analysis
[6] = test system: Human immunodeficiency virus 1; experiment: Antiviral activity against HIV-1 harboring E138K mutant infected in human MT4 cells assessed as protection against virus-induced cytotoxicity incubated for 5 days by MTT assay; assay type: functional, organism-based; details: Human immunodeficiency virus 1, MT4, 120 h
[7] = test system: Human immunodeficiency virus 1; experiment: Antiviral activity against HIV-1 harboring K103N mutant infected in human MT4 cells assessed as protection against virus-induced cytotoxicity incubated for 5 days by MTT assay; assay type: functional, organism-based; details: Human immunodeficiency virus 1, MT4, 120 h
[8] = test system: Human immunodeficiency virus 1; experiment: Antiviral activity against HIV-1 harboring RT L100I mutant infected in human MT4 cells assessed as protection against virus-induced cytotoxicity incubated for 5 days by MTT assay; assay type: functional, organism-based; details: Human immunodeficiency virus 1, MT4, 120 h
[9] = Selectivity index, ratio of CC50 for cytotoxicity against human MT4 cells to EC50 for antiviral activity against HIV-1 IIIB infected in human MT4 cells; assay type: toxicity, cell-based; details: read-out: Ratio CC50/EC50
[10] = test system: Human immunodeficiency virus 1; experiment: Antiviral activity against HIV-1 harboring RES056 mutant infected in human MT4 cells assessed as protection against virus-induced cytotoxicity incubated for 5 days by MTT assay; assay type: functional, organism-based; details: Human immunodeficiency virus 1, MT4, 120 h
[11] = test system: Human immunodeficiency virus 1; experiment: Antiviral activity against HIV-1 harboring F227L/V106A double mutant infected in human MT4 cells assessed as protection against virus-induced cytotoxicity incubated for 5 days by MTT assay; assay type: functional, organism-based; details: Human immunodeficiency virus 1, MT4, 120 h

| Structure (SMILES) | pEC50 [1] | CC50 at 120 h [2] | pEC50 [3] | pEC50 [4] | pIC50 [5] | pEC50 [6] | pEC50 [7] | pEC50 [8] | selectivity ratio [9] | pEC50 [10] | pEC50 [11] |
| --- | --- | --- | --- | --- | --- | --- | --- | --- | --- | --- | --- |
| Cc1cnc(Nc2ccc(C#N)cc2)nc1Nc1c(F)cc(-c2cccnc2)cc1F | < 5.96 | 1100 nM | 7.85 | < 5.96 | 6.71 | 7.23 | 6.95 | < 5.96 | 80 |  |  |
| Cc1cnc(Nc2ccc(C#N)cc2)nc1Nc1c(F)cc(-c2cncc(C#N)c2)cc1F | 5.85 | 50000 nM | 7.62 | < 5.70 | 6.57 | 7.07 | 6.87 | 5.72 | 2080 |  |  |
| Cc1cc(-c2cncnc2)cc(C)c1Nc1ccnc(Nc2ccc(C#N)cc2)n1 | 7.32 | 6800 nM | 8.77 |  | 6.46 | 7.44 | 8.00 | 6.95 | 4020 | 6.23 |  |
| Cc1cnc(Nc2ccc(C#N)cc2)nc1Nc1c(F)cc(-c2cc(F)nc(F)c2)cc1F | 6.55 | 103000 nM | 7.96 | < 5.70 | 7.26 | 7.18 | 6.93 | 5.76 | 9570 |  |  |
| Cc1cnc(Nc2ccc(C#N)cc2)nc1Nc1c(F)cc(-c2ccncc2)cc1F | 7.66 |  |  | 6.59 | 7.92 | 8.04 | 8.27 | 7.46 |  |  |  |
| Cc1ncc(-c2cc(C)c(Nc3ccnc(Nc4ccc(C#N)cc4)n3)c(C)c2)cn1 | 7.64 | 3900 nM | 8.80 |  | 7.33 | 7.62 | 8.11 | 7.17 | 2440 | 6.19 |  |
| Cc1cnc(Nc2ccc(C#N)cc2)nc1Nc1c(F)cc(-c2ccco2)cc1F | 6.73 | 8100 nM | 8.38 | 6.07 | 7.92 | 7.95 | 7.48 | 6.94 | 1920 |  |  |
| Cc1cc(-c2ccco2)cc(C)c1Nc1ccnc(Nc2ccc(C#N)cc2)n1 | 7.55 | 1700 nM | 8.29 | 6.82 | 7.42 | 7.85 | 8.00 | 7.29 | 335 |  |  |
| Cc1ccnc2c1NC(=O)c1cccnc1N2C1CC1 [NEVIRAPINE] |  | > 15000 nM |  | < 5.70 |  |  |  |  |  |  |  |
| Cc1cnc(Nc2ccc(C#N)cc2)nc1Nc1c(F)cc(-c2ccc(C#N)nc2)cc1F | 7.46 | 62000 nM | 8.80 | 5.62 | 7.66 | 8.07 | 7.96 | 7.28 | 37500 |  |  |
| Cc1cnc(Nc2ccc(C#N)cc2)nc1Nc1c(F)cc(-c2ccsc2)cc1F | 6.51 | 261000 nM | 8.15 | 5.89 | 7.92 | 7.31 | 6.73 | 6.55 | 36700 |  |  |
| Cc1cc(-c2ccnc(C(F)(F)F)c2)cc(C)c1Nc1ccnc(Nc2ccc(C#N)cc2)n1 | 6.89 | 6100 nM | 8.18 |  | 7.16 | 7.33 | 7.43 | 6.64 | 923 |  |  |
| Cc1cc(-c2cnc(C(F)(F)F)nc2)cc(C)c1Nc1ccnc(Nc2ccc(C#N)cc2)n1 | 7.53 | 4900 nM | 8.28 | 5.90 | 7.19 | 7.43 | 8.08 | 7.01 | 951 | 6.37 |  |
| Cc1cc(-c2cccc3cc[nH]c23)cc(C)c1Nc1ccnc(Nc2ccc(C#N)cc2)n1 |  | 1000 nM | 7.64 |  | 7.22 | 6.91 | 6.57 |  | 44 |  |  |
| Cc1csc(-c2cc(C)c(Nc3ccnc(Nc4ccc(C#N)cc4)n3)c(C)c2)c1 | 6.94 | 34000 nM | 7.96 | 6.03 | 7.25 | 7.37 | 7.30 | 6.64 | 3060 |  |  |
| Cc1cc(-c2ccc3cc[nH]c3c2)cc(C)c1Nc1ccnc(Nc2ccc(C#N)cc2)n1 | 6.30 | 5800 nM | 7.68 |  | 7.27 | 6.86 | 6.68 | 6.24 | 275 |  |  |
| Cc1cnc(Nc2ccc(C#N)cc2)nc1Nc1c(F)cc(-c2ccnc(F)c2)cc1F | 7.13 | 167000 nM | 8.43 | < 5.70 | 7.44 | 7.75 | 7.68 | 6.98 | 45200 |  |  |
| Cc1cc(-c2cc3ccccc3s2)cc(C)c1Nc1ccnc(Nc2ccc(C#N)cc2)n1 | 6.37 | 138000 nM | 7.44 | 5.55 | 7.21 | 6.69 | 6.77 | 6.15 | 3780 |  | 6.69 |
| Cc1cnc(Nc2ccc(C#N)cc2)nc1Nc1c(F)cc(-c2cncc(C(F)(F)F)c2)cc1F | < 5.70 | 8200 nM | 6.70 | < 5.70 | 6.07 | 6.32 | 6.20 | < 5.70 | 41 |  |  |
| Cc1ccc(-c2cc(C)c(Nc3ccnc(Nc4ccc(C#N)cc4)n3)c(C)c2)s1 | 6.75 | 28000 nM | 7.96 | 5.89 | 7.36 | 7.33 | 7.24 | 6.60 | 2570 |  |  |
| Cc1cnc(Nc2ccc(C#N)cc2)nc1Nc1c(F)cc(-c2ccoc2)cc1F | 6.82 | 4200 nM | 8.24 | 5.87 | 8.08 | 7.91 | 7.32 | 6.64 | 742 |  |  |
| Cc1cc(C#N)cc(C)c1Oc1nc(Nc2ccc(C#N)cc2)nc(N)c1Br [ETRAVIRINE] |  | > 4600 nM |  |  |  |  |  | 7.35 |  | 7.00 | 7.51 |
| Cc1cnc(Nc2ccc(C#N)cc2)nc1Nc1c(F)cc(-c2cncnc2)cc1F | < 6.04 | 900 nM | 7.80 | < 6.04 | 6.55 | 7.06 | 7.06 | < 6.04 | 59 |  |  |
| Cc1cc(-c2cc(C)c(Nc3ccnc(Nc4ccc(C#N)cc4)n3)c(C)c2)cc(C)n1 | 7.07 | 2300 nM | 8.21 | 5.74 | 7.18 | 7.24 | 7.48 | 6.59 | 375 |  | 5.77 |
| Cc1cnc(Nc2ccc(C#N)cc2)nc1Nc1c(F)cc(-c2cccs2)cc1F | 6.62 | 8000 nM | 8.22 | 6.01 | 7.92 | 7.92 | 7.29 | 6.75 | 1330 |  |  |
